Source: patent US20240366785A1 (priority 2021, published 2024)

Tested on: human patients having XLMTM
Assay: Ursodiol treatment of hyperbilirubinemia after resamirigene bilparvovec
Format: in vivo
Experimental: A subject (115-9001) experienced an SAE of Grade 3 cholestasis which required hospitalization. The subject's medical history included cholestasis and elevated total bilirubin. Approximately 5 weeks after dosing, the subject had elevated direct bilirubin levels (Grade 2) which was treated with ursodiol and resolved 6 weeks later. Approximately 11 weeks after dosing, the subject experienced cholestasis and decision was made to hospitalize the subject 9 days after cholestasis was reported. The cholestasis resolved after approximately 12 weeks. Cholestasis was considered by the Investigator to be possibly related to resamirigene bilparvovec infusion. The subject's baseline history of cholestasis supports underlying disease as causal factor.
Cholestasis and hyperbilirubinemia are considered identified risks associated with resamirigene bilparvovec. Therefore, for subjects receiving resamirigene bilparvovec, ursodiol is recommended as prophylaxis for possible cholestatic syndromes. Ursodiol (ursodeoxycholic acid) is an enterally administered hydrophilic bile acid that can decrease the hydrophobic bile acid content within bile. […]

C[C@H](CCC(=O)O)[C@H]1CC[C@H]2[C@@H]3[C@@H](O)C[C@@H]4C[C@H](O)CC[C@]4(C)[C@H]3CC[C@]12C [ursodiol, Ursodeoxycholic acid]
Transient hyperbilirubinemia following resamirigene bilparvovec: response to ursodiol (in some cases): responsive
Elevated direct bilirubin (Grade 2) treated with ursodiol: time to resolution (subject 115-9001, after resamirigene bilparvovec 3.0×10^14 vg/kg): 6 weeks
